Test results taken from paper PMC2824011 (Analytical biochemistry, 2009).

What was measured:
[1] = molecular target: T1, human lysosomal mannosidase (HLM) (Homo sapiens, UniProt O00754); experiment: continuous fluorometric turnover assay of purified enzyme, pH […]; type: biochemical
T1 sequence (O00754 50-1011): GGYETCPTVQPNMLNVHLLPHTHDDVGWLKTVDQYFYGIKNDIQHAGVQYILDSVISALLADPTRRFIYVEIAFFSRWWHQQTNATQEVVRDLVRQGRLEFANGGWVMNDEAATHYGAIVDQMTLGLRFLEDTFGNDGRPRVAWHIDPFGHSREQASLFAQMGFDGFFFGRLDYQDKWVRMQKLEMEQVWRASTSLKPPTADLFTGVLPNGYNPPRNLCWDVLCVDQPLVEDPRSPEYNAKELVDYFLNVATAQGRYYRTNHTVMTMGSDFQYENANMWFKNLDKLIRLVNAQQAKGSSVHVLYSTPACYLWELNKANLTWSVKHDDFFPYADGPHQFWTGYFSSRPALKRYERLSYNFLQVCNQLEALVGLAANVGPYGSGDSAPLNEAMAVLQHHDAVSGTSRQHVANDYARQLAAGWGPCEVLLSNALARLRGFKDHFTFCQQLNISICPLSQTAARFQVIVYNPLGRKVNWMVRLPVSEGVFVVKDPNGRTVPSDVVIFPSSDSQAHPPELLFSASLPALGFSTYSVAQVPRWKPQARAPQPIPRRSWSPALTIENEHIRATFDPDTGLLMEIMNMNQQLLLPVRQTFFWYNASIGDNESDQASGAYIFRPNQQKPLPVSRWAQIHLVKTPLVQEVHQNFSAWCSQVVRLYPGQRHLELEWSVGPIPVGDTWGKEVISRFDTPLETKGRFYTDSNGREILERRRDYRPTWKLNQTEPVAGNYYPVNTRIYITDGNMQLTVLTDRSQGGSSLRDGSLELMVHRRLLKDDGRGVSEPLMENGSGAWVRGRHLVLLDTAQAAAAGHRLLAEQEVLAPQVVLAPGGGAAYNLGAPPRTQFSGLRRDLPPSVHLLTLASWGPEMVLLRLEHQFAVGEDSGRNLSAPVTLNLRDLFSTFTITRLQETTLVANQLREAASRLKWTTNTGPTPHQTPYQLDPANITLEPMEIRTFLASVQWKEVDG

[2] = molecular target: T2, Golgi α-mannosidase II (dGMII) (Drosophila melanogaster, UniProt Q24451); experiment: continuous fluorometric enzyme assay with Res-Man substrate, pH […]; type: biochemical
T2 sequence (Q24451 76-1108): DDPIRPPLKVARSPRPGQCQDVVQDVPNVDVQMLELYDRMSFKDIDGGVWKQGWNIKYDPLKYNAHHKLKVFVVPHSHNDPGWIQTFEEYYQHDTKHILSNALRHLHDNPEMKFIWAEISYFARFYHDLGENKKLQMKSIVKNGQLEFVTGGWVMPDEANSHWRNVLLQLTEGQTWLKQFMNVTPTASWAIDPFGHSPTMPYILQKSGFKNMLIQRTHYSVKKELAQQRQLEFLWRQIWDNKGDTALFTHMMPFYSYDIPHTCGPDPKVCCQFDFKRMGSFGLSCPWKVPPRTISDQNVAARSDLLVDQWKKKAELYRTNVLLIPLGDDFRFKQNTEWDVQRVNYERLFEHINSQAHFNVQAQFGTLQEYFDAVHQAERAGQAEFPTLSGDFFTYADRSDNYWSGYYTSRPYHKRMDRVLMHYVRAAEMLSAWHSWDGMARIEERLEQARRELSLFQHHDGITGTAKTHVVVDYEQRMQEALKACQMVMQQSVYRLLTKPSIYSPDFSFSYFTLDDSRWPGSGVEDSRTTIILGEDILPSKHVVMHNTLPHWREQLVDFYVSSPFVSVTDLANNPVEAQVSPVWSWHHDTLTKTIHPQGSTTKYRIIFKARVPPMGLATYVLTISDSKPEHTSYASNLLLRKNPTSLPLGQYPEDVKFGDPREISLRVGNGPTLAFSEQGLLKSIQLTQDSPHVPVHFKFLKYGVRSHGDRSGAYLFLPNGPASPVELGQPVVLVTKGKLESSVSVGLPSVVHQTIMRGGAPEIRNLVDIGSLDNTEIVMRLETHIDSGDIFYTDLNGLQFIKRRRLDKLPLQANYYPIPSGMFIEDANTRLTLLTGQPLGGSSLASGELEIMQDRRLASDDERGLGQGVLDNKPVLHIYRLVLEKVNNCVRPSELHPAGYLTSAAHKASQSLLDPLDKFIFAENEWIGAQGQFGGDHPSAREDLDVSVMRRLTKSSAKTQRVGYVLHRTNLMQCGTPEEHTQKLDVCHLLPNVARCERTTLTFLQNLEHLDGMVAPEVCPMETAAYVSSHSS

O=c1ccc2nc3ccc(O[C@H]4O[C@H](CO)[C@@H](O)[C@H](O)[C@@H]4O)cc3oc-2c1 [Res-Man, resorufin α-D-mannopyranoside]
continuous fluorometric turnover assay of purified enzyme, pH 6.0 [1]: recombinant human lysosomal mannosidase (HLM) (◊) using the substrate resorufin-α-D-mannopyranoside (Res-Man)

O[C@H]1[C@H]2[C@H](O)CCCN2C[C@H]1O [swainsonine]
Ki [2]: 44.7 nM
